Reference: PMC11995724, “Antibiotic target discovery by integrated phenotypic and activity-based profiling of electrophilic fragments” (Cell chemical biology, 2025)

Assay: in vitro
Settings: human, hek293t cells

Structure (SMILES) | viability at 48 h, 25 µM
CC(Cl)C(=O)Nc1cccc(-c2ncc3n2CCCC3)c1 (stereo not shown) [5-F19, 2-chloro-N-(3-{5H,6H,7H,8H-imidazo[1,5-a]pyridin-3-yl}phenyl)propanamide] | 95.8%
O=C(CCl)NCCc1c(F)cccc1F [5-F20, 2-chloro-N-[2-(2,6-difluorophenyl)ethyl]acetamide] | 15.5%
CC(Cl)C(=O)N1CC(n2cc(C(N)=O)nn2)C1 (stereo not shown) [5-F21, 1-[1-(2-chloropropanoyl)azetidin-3-yl]-1H-1,2,3-triazole-4-carboxamide] | 94.6%
O=C(CCl)N(Cc1ccccc1)Cc1ccco1 [5-F22, N-benzyl-2-chloro-N-[(furan-2-yl)methyl]acetamide] | 0.693%
COc1ccc(NC(C)=O)cc1NC(=O)CCl [5-G03, 2-chloro-N-(5-acetamido-2-methoxyphenyl)acetamide] | 1.44%
CCC(=O)NC1CCN(C(=O)CCl)C1 (stereo not shown) [5-G04, N-[1-(2-chloroacetyl)pyrrolidin-3-yl]propanamide] | 10.3%
CC(Cl)C(=O)Nc1ccccc1C(N)=O (stereo not shown) [5-G05, 2-(2-chloropropanamido)benzamide] | 101%
Cc1noc(C)c1CN(C)C(=O)CCl [5-G06, 2-chloro-N-[(3,5-dimethyl-1,2-oxazol-4-yl)methyl]-N-methylacetamide] | 1.87%
COc1ccc2[nH]c3c(c2c1)CCCC3NC(=O)CCl (stereo not shown) [5-G07, 2-chloro-N-(6-methoxy-2,3,4,9-tetrahydro-1H-carbazol-1-yl)acetamide] | 0.129%
O=C(CCl)N1CCOc2c1cccc2C(F)(F)F [5-G08, 2-chloro-1-[8-(trifluoromethyl)-3,4-dihydro-2H-1,4-benzoxazin-4-yl]ethan-1-one] | 0.974%
O=C(CCl)NC1CCC2(CCC1(F)F)OCCO2 (stereo not shown) [5-G09, 2-chloro-N-{9,9-difluoro-1,4-dioxaspiro[4.6]undecan-8-yl}acetamide] | 5.9%
O=C(CCl)N1CC(S(=O)(=O)Nc2ccccc2)C1 [5-G10, 1-(2-chloroacetyl)-N-phenylazetidine-3-sulfonamide] | 1.28%
CC(NC(=O)CCl)C(=O)Nc1ccc(Cl)cc1 (stereo not shown) [5-G11, 2-(2-chloroacetamido)-N-(4-chlorophenyl)propanamide] | 1.06%
Cc1cc(CN(Cc2cnn(C)c2)C(=O)CCl)ccc1Cl [5-G12, 2-chloro-N-[(4-chloro-3-methylphenyl)methyl]-N-[(1-methyl-1H-pyrazol-4-yl)methyl]acetamide] | -0.0746%
CC(C)c1cccc(C(C)C)c1NC(=O)CCl [5-G13, N-[2,6-bis(propan-2-yl)phenyl]-2-chloroacetamide] | 37.8%
Cc1cc(CN(Cc2ccn(C)n2)C(=O)CCl)ccc1F [5-G14, 2-chloro-N-[(4-fluoro-3-methylphenyl)methyl]-N-[(1-methyl-1H-pyrazol-3-yl)methyl]acetamide] | 0.658%
O=C(CCl)Nc1nc2c(s1)CCCC2 [5-G15, 2-chloro-N-(4,5,6,7-tetrahydro-1,3-benzothiazol-2-yl)acetamide] | 1.2%
CCn1cc(CN(C(=O)CCl)[C@H]2CC[C@H](C)CC2)cn1 [5-G16, 2-chloro-N-[(1-ethyl-1H-pyrazol-4-yl)methyl]-N-[(1r,4r)-4-methylcyclohexyl]acetamide] | 0.893%
Cc1c(NC(=O)CCl)c(=O)n(-c2ccccc2)n1C [5-G17, 2-chloro-N-(1,5-dimethyl-3-oxo-2-phenyl-2,3-dihydro-1H-pyrazol-4-yl)acetamide] | 42.7%
O=C(CCl)N1CCCCC1c1nc(-c2ccccn2)cs1 (stereo not shown) [5-G18, 2-chloro-1-{2-[4-(pyridin-2-yl)-1,3-thiazol-2-yl]piperidin-1-yl}ethan-1-one] | 0.612%

Structure (SMILES) | viability at 48 h, 25 µM
O=C(CCl)Nc1cc(Cl)ccc1Oc1ccccc1 [5-G19, 2-chloro-N-(5-chloro-2-phenoxyphenyl)acetamide] | 0.676%
O=C(CCl)N1CC(Cc2ccc(F)cc2F)C1 [5-G20, 2-chloro-1-{3-[(2,4-difluorophenyl)methyl]azetidin-1-yl}ethan-1-one] | 0.867%
CC(Cl)C(=O)Nc1ccc(Cl)c(S(=O)(=O)N(C)C)c1 (stereo not shown) [5-G21, 2-chloro-N-[4-chloro-3-(dimethylsulfamoyl)phenyl]propanamide] | 78.5%
O=C(CCl)NCC(=O)Nc1nccs1 [5-G22, 2-chloro-N-{[(1,3-thiazol-2-yl)carbamoyl]methyl}acetamide] | 3.47%
CC(Oc1cccc(F)c1F)C(=O)N1CCN(C(=O)CCl)CC1 (stereo not shown) [5-H03, 1-[4-(2-chloroacetyl)piperazin-1-yl]-2-(2,3-difluorophenoxy)propan-1-one] | 1.67%
CC(Cl)C(=O)N1CCc2ccccc21 (stereo not shown) [5-H04, 2-chloro-1-(2,3-dihydro-1H-indol-1-yl)propan-1-one] | 114%
CC1=C(c2ccco2)CN(C(=O)CCl)CC1 [5-H05, 2-chloro-1-[5-(furan-2-yl)-4-methyl-1,2,3,6-tetrahydropyridin-1-yl]ethan-1-one] | 69.1%
CN(C(=O)CCl)C(c1ccccc1)c1ccccc1 [5-H06, 2-chloro-N-(diphenylmethyl)-N-methylacetamide] | 0.0655%
CC1CSc2ccccc2N(C(=O)CCl)C1 (stereo not shown) [5-H07, 2-chloro-1-(3-methyl-2,3,4,5-tetrahydro-1,5-benzothiazepin-5-yl)ethan-1-one] | 0.825%
CCN(Cc1ccc(C#N)cc1F)C(=O)CCl [5-H08, 2-chloro-N-[(4-cyano-2-fluorophenyl)methyl]-N-ethylacetamide] | 0.591%
CC(Cl)C(=O)N1CCOCC1 (stereo not shown) [5-H09, 2-chloro-1-(morpholin-4-yl)propan-1-one] | 103%
CC(Cl)C(=O)Nc1ccc2ccccc2c1 (stereo not shown) [5-H10, 2-chloro-N-(naphthalen-2-yl)propanamide] | 90.7%
CCCN(CC1CC1)C(=O)CCl [5-H11, 2-chloro-N-(cyclopropylmethyl)-N-propylacetamide] | 1.45%
COc1ccc(CCNC(=O)CCl)cc1 [5-H12, 2-chloro-N-[2-(4-methoxyphenyl)ethyl]acetamide] | 0.726%
COc1ccc(N(C(=O)CCl)C2C=CS(=O)(=O)C2)cc1 (stereo not shown) [5-H14, 2-chloro-N-(1,1-dioxo-2,3-dihydro-1lambda6-thiophen-3-yl)-N-(4-methoxyphenyl)acetamide] | 1.1%
O=C(CCl)NC1CCCCCC1 [5-H16, 2-chloro-N-cycloheptylacetamide] | 17.7%
Cc1csc(CN2CCN(C(=O)C(C)Cl)CC2)n1 (stereo not shown) [5-H17, 2-chloro-1-{4-[(4-methyl-1,3-thiazol-2-yl)methyl]piperazin-1-yl}propan-1-one] | 87.4%
CC(Cl)C(=O)N1N=C(c2ccc(Cl)cc2)CC1c1ccco1 (stereo not shown) [5-H18, 2-chloro-1-[3-(4-chlorophenyl)-5-(furan-2-yl)-4,5-dihydro-1H-pyrazol-1-yl]propan-1-one] | 78.1%
COc1ccccc1C(NC(=O)C(C)Cl)c1ccco1 (stereo not shown) [5-H19, 2-chloro-N-[(furan-2-yl)(2-methoxyphenyl)methyl]propanamide] | 120%
CC(C)(C)N(Cc1ccccc1)C(=O)CCl [5-H20, N-benzyl-N-tert-butyl-2-chloroacetamide] | 1.81%
